Test results as given in patent US20090117155A1, “TREATMENT OF HIV-1 BY MODULATION OF VPR ACTIVATION OF THE M-CSF PROMOTER” (priority 2006, published 2009).

Key:
M-CSF promoter = M-CSF promoter luciferase reporter (pGL3-M-CSF) in primary human macrophages; assay type: cell-based
Protocol: (§1) Peripheral blood mononuclear cells (PBMC) were isolated from heparinized whole blood or buffy coats acquired from healthy seronegative blood donors by density-gradient centrifugation (Histopaque-1017, Sigma-Aldrich, St. Louis, Mo.). CD14+ monocytes were isolated from prepared PBMC using the Miltenyi AutoMACS system (Miltenyi Biotec, Auburn, Calif.). Briefly, cells were incubated with anti-CD14 monoclonal antibody-coated microbeads (Miltenyi Biotec, Auburn, Calif.) at 4° C. for 15 minutes and run on an AutoMacs separator. […] Recovered CD14+ monocytes were used immediately in transfection experiments. For macrophage preparation, PBMC were incubated in RPMI 1640 (Invitrogen, Carlsbad, Calif.) containing 20% FBS, 10% human AB serum, 2 mM L-glutamine and penicillin (50 U/ml)/streptomycin (50 μg/ml) overnight at 37° C. Adherent cells were washed 3 times with phosphate-buffered saline (PBS), removed with cold PBS 0.02% EDTA and differentiated into macrophages for 6 days in DMEM supplemented with 10% human AB serum and 2 mM L-glutamine. THP1 cells were cultivated in RPMI 1640 supplemented with 10% FBS, 2 mM L-glutamine and penicillin (50 U/ml)/streptomycin (50 μg/ml) (=complete medium).
The M-CSF promoter (−1310/+48 bp) was amplified from human genomic DNA by PCR with the primers 5′-[…]-3′ (SEQ ID NO: 20) and 5′-[…] […]-3′ (SEQ ID NO: 21). […] Amplification consisted of 30 cycles of 30 s at 94° C., 30 s at 58° C., and 6 min at 72° C. All the constructs were verified by sequencing (Nucleic Acid Facility, Jefferson University, PA USA).
(§2) THP1 cells (2×106/transfection) were transiently transfected with Effecten reagent (Qiagen, Santa Clara, Calif.) using 1 μg of plasmid DNA, 8 μl enhancer and 10 μl effectene. Cells were incubated in complete medium for 24 hours in 6-well plates. Human primary CD 14+ cells were transfected using the Human Monocyte Nucleofector Kit (Amaxa, Gaithersburg, Md.) according to the manufacturer's instructions. Briefly, 5×10^6 CD 14+ cells were resuspended in 100 μl of nucleofector solution (Amaxa) with 5 μg of DNA and electroporated using the program Y-001. Cells were then transferred in 1.5 ml of Human Monocyte Nucleofector medium (Amaxa) in 24-well plates for 24 hours. Human macrophages were transfected using the Human Macrophage Nucleofector Kit (Amaxa) according to the manufacturer's specifications. In brief, 0.5×10^6 macrophages were resuspended in 100 μl of nucleofector solution (Amaxa) with 5 μg of DNA and electroporated using the program Y-010. Cells were incubated for 24 hours in advanced RPMI (Invitrogen, Carlsbad, Calif.) supplemented with 10% FBS and 2 mM L-glutamine in 12-well plates. One day after transfection, cells were harvested by centrifugation and cell pellets were resuspended in 200 μl of lysis buffer (Promega). Twenty microliters of cell lysate was assayed for luciferase activity using the Luciferase Assay System (Promega). The protein concentration was determined with the BCA Protein Assay Reagent (Pierce, Rockford, Ill.) and the luciferase activity was expressed in Relative Light Unit (RLU) per μg of protein.

mammary tumorigenesis = conditions: Bcra1/p53-deficient mice, Poole et al., 2006; cited from earlier work
HIV-1 LTR = conditions: Schafer et al., 2006; cited from earlier work
M-CSF = M-CSF production in culture supernatants of primary human macrophages (ELISA); assay type: cell-based
Protocol: as §1, §2
M-CSF and IL-6 production in cell culture supernatants were assessed by ELISA according to the manufacturer's instructions (R&D systems, Minneapolis, Minn.).

HIV-1 = conditions: Schafer et al., 2006; cited from earlier work
[1] = concentrations as high as 100 μM, in the absence of Vpr
[2] = primary macrophages co-transfected with pGL3-M-CSF and Vpr vector

IL-6: cytokine IL-6 used to treat primary macrophages for 24 hours
M-CSF transcription (M-CSF promoter; primary macrophages treated for 24 hours): 50.1±0.4 RLU/μg of protein

CC(=O)[C@H]1CC[C@H]2[C@@H]3CCC4=CC(=O)CC[C@]4(C)[C@H]3CC[C@]12C [progesterone]
effect on M-CSF promoter activity (M-CSF promoter; primary macrophages transfected with pGL3-M-CSF, different concentrations, no Vpr): no increase

CC#C[C@]1(O)CC[C@H]2[C@@H]3CCC4=CC(=O)CCC4=C3[C@@H](c3ccc(N(C)C)cc3)C[C@@]21C [RU486, mifepristone]
mammary tumorigenesis (mammary tumorigenesis): prevent mammary tumorigenesis
Vpr-induced transactivation of the HIV-1 LTR (HIV-1 LTR): inhibits
inhibition of the Vpr effect on M-CSF production (M-CSF; 50 μM, primary macrophages co-transfected with pGL3-M-CSF and Vpr vector): total inhibition
inhibition at 10 µM (M-CSF; Homo sapiens, Primary macrophage, 10 μM, primary macrophages co-transfected with pGL3-M-CSF and Vpr vector, read-out: inhibition of Vpr induced M-CSF production): > 50%
effect on basal level M-CSF production (M-CSF; [1]): did not completely inhibit
concentration required for inhibition of M-CSF induction by Vpr (M-CSF; primary human macrophages): approximately 10 μM
effect on Vpr-dependent M-CSF production (M-CSF; [2]): dose-dependent decrease
inhibition at 20 µM (M-CSF promoter; Homo sapiens, Primary macrophage, 20 μM, primary macrophages co-transfected with pGL3-M-CSF and Vpr vector, read-out: inhibition of Vpr-dependent M-CSF promoter activity): > 50%
effect on basal level of M-CSF promoter activity (M-CSF promoter; [1]): did not completely inhibit
effect on Vpr-dependent M-CSF promoter activity (M-CSF promoter; [2]): dose-dependent decrease
viral replication in PBMCs (HIV-1): inhibits
